The target in assay [1] is T1, m2 muscarinic acetylcholine receptor (Homo sapiens, UniProt P08172).
T1 construct: purchased Receptor Biology, Inc; host or cells: CHO cells
T1 sequence (P08172 1-466): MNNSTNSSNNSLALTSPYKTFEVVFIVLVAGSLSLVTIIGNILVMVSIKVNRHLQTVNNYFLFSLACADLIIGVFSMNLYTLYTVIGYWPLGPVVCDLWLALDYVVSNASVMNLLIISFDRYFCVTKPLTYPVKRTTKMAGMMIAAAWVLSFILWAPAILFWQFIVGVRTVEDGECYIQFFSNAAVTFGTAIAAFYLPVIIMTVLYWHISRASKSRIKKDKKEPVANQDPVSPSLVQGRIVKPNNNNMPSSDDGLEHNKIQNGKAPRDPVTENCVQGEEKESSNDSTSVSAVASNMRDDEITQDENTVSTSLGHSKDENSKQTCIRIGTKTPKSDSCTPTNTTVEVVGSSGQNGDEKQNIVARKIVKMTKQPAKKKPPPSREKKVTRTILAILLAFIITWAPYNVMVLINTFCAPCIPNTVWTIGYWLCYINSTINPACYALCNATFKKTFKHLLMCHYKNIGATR
Kind of assay: biochemical. Type of assay: binding.

Assay [2] deals with T2, m3 muscarinic acetylcholine receptor (Homo sapiens, UniProt P20309).
T2 construct: purchased Receptor Biology, Inc; host or cells: CHO cells
T2 sequence (P20309 whole entry): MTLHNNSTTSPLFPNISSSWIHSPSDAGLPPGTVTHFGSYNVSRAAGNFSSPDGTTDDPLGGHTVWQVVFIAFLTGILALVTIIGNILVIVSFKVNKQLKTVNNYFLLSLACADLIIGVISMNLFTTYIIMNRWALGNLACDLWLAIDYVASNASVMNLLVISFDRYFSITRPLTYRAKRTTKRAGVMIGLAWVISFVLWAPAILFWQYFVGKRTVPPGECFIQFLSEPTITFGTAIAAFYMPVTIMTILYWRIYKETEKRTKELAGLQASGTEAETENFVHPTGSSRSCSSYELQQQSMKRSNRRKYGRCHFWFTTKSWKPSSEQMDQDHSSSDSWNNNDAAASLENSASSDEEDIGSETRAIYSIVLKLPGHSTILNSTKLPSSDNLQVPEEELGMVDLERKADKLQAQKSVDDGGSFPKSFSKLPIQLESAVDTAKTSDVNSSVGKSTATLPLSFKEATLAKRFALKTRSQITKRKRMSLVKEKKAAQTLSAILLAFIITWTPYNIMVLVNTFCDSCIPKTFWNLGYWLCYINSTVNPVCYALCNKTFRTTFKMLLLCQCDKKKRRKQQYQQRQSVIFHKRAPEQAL
Kind of assay: biochemical. In kind it is binding.

The target of assay [3] is T3, M2 receptor in isolated rat right atrium (Rattus norvegicus, UniProt P10980).
T3 construct: A male SD strain rat (weighing 300-500 g) was killed by exsanguination, and the right atrium was isolated; from tissue; host or cells: isolated right atrium of male SD rat
T3 sequence (P10980 1-466): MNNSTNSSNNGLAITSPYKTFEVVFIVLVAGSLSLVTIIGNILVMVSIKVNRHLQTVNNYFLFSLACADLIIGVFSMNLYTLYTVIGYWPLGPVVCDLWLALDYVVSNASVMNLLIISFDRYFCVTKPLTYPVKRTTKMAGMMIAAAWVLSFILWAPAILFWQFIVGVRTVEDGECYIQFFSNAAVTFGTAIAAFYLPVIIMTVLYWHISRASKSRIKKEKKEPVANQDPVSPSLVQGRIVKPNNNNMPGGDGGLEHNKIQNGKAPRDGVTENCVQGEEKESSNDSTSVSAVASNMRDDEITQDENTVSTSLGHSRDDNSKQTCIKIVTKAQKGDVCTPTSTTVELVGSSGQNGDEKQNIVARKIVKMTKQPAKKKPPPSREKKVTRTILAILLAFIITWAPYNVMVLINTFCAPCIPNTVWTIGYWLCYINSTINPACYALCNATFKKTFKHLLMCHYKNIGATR
Kind of assay: biochemical.

Assay [4] concerns the target T4, airway M3 receptor in isolated rat trachea (Rattus norvegicus, UniProt P08483).
T4 construct: A male SD strain rat (weighing 300-500 g) was killed by exsanguination, and the trachea was isolated; from tissue; host or cells: isolated trachea of male SD rat
Kind of assay: biochemical.

Assay [5] deals with T5, muscarinic M3 receptor (Canis lupus familiaris, UniProt A0A8I3N190).
T5 construct: 12-36 months old male beagle dogs (weighing 10-15 kg) were used; from tissue; host or cells: anesthetized male beagle dogs, airway in vivo
T5 sequence (A0A8I3N190 1-590): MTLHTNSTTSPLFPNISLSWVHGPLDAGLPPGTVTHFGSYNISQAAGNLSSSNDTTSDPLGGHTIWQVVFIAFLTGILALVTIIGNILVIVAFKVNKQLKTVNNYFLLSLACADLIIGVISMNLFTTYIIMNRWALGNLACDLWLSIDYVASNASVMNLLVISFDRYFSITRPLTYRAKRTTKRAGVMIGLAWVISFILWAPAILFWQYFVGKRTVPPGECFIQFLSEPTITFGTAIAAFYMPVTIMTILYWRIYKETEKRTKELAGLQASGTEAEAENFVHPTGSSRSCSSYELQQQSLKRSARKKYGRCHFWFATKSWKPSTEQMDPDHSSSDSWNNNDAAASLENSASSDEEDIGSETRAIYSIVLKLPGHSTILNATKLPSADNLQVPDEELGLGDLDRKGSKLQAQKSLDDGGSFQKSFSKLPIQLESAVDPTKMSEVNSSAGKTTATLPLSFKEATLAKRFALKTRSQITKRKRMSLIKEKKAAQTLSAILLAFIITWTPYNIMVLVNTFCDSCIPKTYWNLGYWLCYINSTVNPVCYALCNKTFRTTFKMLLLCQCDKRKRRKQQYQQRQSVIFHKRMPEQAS
The following applies: dog, in vivo.

Structures are written as SMILES.

T4 sequence (P08483 whole entry): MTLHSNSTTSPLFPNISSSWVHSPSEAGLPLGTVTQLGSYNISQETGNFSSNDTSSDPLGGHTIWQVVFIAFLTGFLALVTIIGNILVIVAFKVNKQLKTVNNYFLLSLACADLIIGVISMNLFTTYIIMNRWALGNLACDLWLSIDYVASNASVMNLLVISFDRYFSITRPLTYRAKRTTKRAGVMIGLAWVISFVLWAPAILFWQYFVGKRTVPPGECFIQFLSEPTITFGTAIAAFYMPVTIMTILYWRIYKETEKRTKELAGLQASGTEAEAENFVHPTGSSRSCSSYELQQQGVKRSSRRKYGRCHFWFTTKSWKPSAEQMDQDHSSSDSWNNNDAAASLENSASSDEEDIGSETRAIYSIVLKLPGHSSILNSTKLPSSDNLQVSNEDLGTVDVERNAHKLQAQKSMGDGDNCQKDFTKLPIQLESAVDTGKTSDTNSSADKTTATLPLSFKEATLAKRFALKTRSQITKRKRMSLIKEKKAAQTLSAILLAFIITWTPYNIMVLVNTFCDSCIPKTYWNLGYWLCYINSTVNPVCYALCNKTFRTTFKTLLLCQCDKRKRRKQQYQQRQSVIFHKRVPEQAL

The compound `N=CN1CCC(CCOC(=O)[C@](O)(c2ccccc2)[C@@H]2CCC(F)(F)C2)CC1` [Example 54, 2-(1-(Iminomethyl)piperidin-4-yl)ethyl (2R)-2-((1R)-3,3-difluorocyclopentyl)-2-hydroxy-2-phenylethanoate] returned a Ki in assay [1] of 4.76 nM. In assay [2], the inhibitory constant (Ki) is 0.079 nM and the “m2/m3 (ratio of Ki)” value came out at 60.2. Also, the Kb in assay [3] was determined as 10.6 nM. In assay [4], this compound yielded a Kb of 0.21 nM. Also, in assay [4] (rat, right atrium / trachea), the “M2/M3 (ratio of KB)” value amounted to 50. In assay [5], the “Shift Value 5 minutes after” value was more than 30, the “Shift Value 4 hours after” value is recorded as more than 30 and the “Shift Value 24 hours after” value worked out at 3.9.

As usually defined, the Ki is a dissociation constant, usually derived from enzyme kinetics or from competition with a known ligand. A lower Ki goes with tighter binding.

The values are drawn from patent publication US7504432B2 (priority 2000, dated 2009).
